Assay results published in patent publication US4283538A, “Novel triarylmethane compounds” (Polaroid Corporation, priority 1979, dated 1981).

Legend:
Format in all cases: physicochemical
[1] = Transmission densities (R, G, B) of image-receiving components containing the dye before and after bleaching with aqueous 1 N KOH; details: for Transmission Density After Bleaching, B / Transmission Density Before Bleaching, B: blue; for Transmission Density After Bleaching, G / Transmission Density Before Bleaching, G: green; for Transmission Density After Bleaching, R / Transmission Density Before Bleaching, R: red
Text: Using appropriate solvents, samples of the dye compounds prepared in Examples 12, 13, 24 and 26 were incorporated into the image-receiving layer 3 of four image-receiving components comprising the structure set forth below by mixing the solution of each compound with a solution of the graft copolymer and coating this mixture on top of the timing layer to complete each of the image-receiving components.
A transparent 4 mil polyethylene terephthalate film base coated with, in succession:
1. as a polymeric acid layer, a mixture of about 9 parts of a partial butyl ester of polyethylene/maleic anhydride copolymer and 1 part of polyvinyl butyral coated at a coverage of about 2,500 mgs./ft.^2 ;
2. a timing layer containing a 14:1 ratio of a 60-30-4-6 tetrapolymer of butylacrylate, diacetone acrylamide, styrene and methacrylic acid and polyvinyl alcohol at a coverage of 500 mgs./ft.^2 ;
3. a graft copolymer of 4-vinylpyridine and vinylbenzyltrimethylammoniumchloride grafted on hydroxyethyl cellulose in a weight ratio of 2.2/1/2.2, respectively, coated at a coverage of 300 mgs./ft.^2 to provide an imagereceiving layer and containing the selected dye compound at a coverage of 22 mgs./ft.^2.
Each of the image-receiving components containing the respective dye compounds were placed on a piece of gelatin coated Mylar, and the transmission densities for red (R), green (G) and blue (B) were recorded on a transmission densitometer. Then several drops of aqueous 1 N KOH were added to each gelatin sheet, and the image-receiving components were lightly pressed against the gelatin sheets to "bleach" the dye compounds. […]

[2] = Bleaching rate (T1/2) in pH=12 aqueous buffer, visible spectrometer; details: selected wavelength for optical density recording, pH=12 buffer
Method: Also, the "bleaching" rates for the compounds of Examples 21, 23 and 24 were determined at pH=12 in terms of T1/2. By T1/2 is meant the time measured for one-half of the colored compound to decolorize. In making these determinations, a cell containing about 3 ml of pH=12 buffer (aqueous) was placed in a visible spectrometer. A sample of each compound was dissolved in methanol, and a small amount (less than 0.1 cc) of each solution was injected into the buffer. The optical densities were then recorded at a selected wavelenth value to determine T1/2.

[3] = Persistence of colorlessness on acidification to pH 1 after decolorization in aqueous 1 N sodium hydroxide; details: methanol solution decolorized with aqueous 1 N NaOH, then aqueous HCl to pH 1
Text: As discussed above and also in the aforementioned application, the subject compounds have the ability to decolorize completely and irreversibly in base by undergoing an irreversible cleavage reaction within a predetermined time at a predetermined pH to give a new colorless compound which remains colorless at the pH's normally encountered during processing subsequent to "bleaching" so that the new compound may be retained in a photographic film unit, e.g., a photosensitive element without the possibility of color reappearing in time. In this regard, samples of the compounds prepared in Examples 24 and 26 above were dissolved in a small amount of methanol, and aqueous 1 N sodium hydroxide was added to each solution to decolorize the compound.

[4] = Decolorization of methanol solution added to aqueous 1 N KOH
[5] = 15 to 60 seconds after aqueous 1 N KOH
[6] = dye 22 mgs./ft.^2 in image-receiving layer
[7] = dye 22 mgs./ft.^2 in image-receiving layer, densitometer set at 0.00 with two gelatin coated mylar
[8] = coating stored for over 3 months
[9] = coating stored for over 3 months, bleaching time about 3 minutes, aqueous 1 N KOH

Structure (SMILES)	Transmission Density After Bleaching, B [1, 5]	Transmission Density Before Bleaching, B [1, 6]	Transmission Density After Bleaching, G [1, 5]	Transmission Density Before Bleaching, G [1, 6]	Transmission Density After Bleaching, R [1, 5]	Transmission Density Before Bleaching, R [1, 7]	Wavelength (λmax-nm) [2] [nm]	further results
COC1=CC(=C(c2ccc(N3CCOCC3)cc2)c2ccccc2S(=O)(=O)N(C)C(=O)OCCS(C)(=O)=O)C=C(OC)C1=O [Example 12]	.00	.45	.01	.31	.02	.00	–	–
COC1=CC(=C(c2cc(OC)c(O)c(OC)c2)c2ccccc2S(=O)(=O)N(C)C(C)=O)C=C(OC)C1=O [Example 23]	–	–	–	–	–	–	640	–
COC1=CC(=C(c2cc(OC)c(O)c(OC)c2)c2ccccc2S(=O)(=O)N(C)C(=O)OCCS(C)(=O)=O)C=C(OC)C1=O [Example 21]	–	–	–	–	–	–	640	–
CC1=CC(=C(c2cc(C)c(O)c(C)c2)c2ccccc2S(=O)(=O)N(C)C(=O)OCCS(C)(=O)=O)C=C(C)C1=O [Example 24]	.00	.40	.00	.00	.01	.00	590	color after decolorization and acidification to pH 1 [3]: remained colorless even at pH 1
CN(C(=O)OCCS(C)(=O)=O)S(=O)(=O)c1ccccc1C(=C1C=C(C(O)(C(F)(F)F)C(F)(F)F)C(=O)c2ccccc21)c1cc2c3c(c1)CCCN3CCC2 [Example 26]	–	–	–	–	–	–	–	color after decolorization and acidification to pH 1 [3]: remained colorless even at pH 1; time to decolorize (in words) [4]: substantially instantaneously; Transmission Density Before Bleaching, B [1, 8]: .05; Transmission Density After Bleaching, B [1, 9]: .02; Transmission Density Before Bleaching, G [1, 8]: .06; Transmission Density After Bleaching, G [1, 9]: .00; Transmission Density Before Bleaching, R [1, 8]: .19; Transmission Density After Bleaching, R [1, 9]: .02
CC(=O)N(C)S(=O)(=O)c1ccccc1C(=C1C=C(C(O)(C(F)(F)F)C(F)(F)F)C(=O)c2ccccc21)c1cc2c3c(c1)CCCN3CCC2 [Example 9]	–	–	–	–	–	–	–	time to decolorize [4]: approximately 5 seconds
COC1=CC(=C(c2cc3c4c(c2)CCCN4CCC3)c2ccccc2S(=O)(=O)N(C)C(=O)OCCS(C)(=O)=O)C=C(OC)C1=O [Example 13]	.00	.09	.01	.32	.01	.21	–	–
